The record followed here is patent US7649001B2.

Series [1] addresses T1, LNCaP type mutant androgen receptor (AR) (Homo sapiens, UniProt P10275, T878A).
T1 sequence (P10275 1-920 T878A): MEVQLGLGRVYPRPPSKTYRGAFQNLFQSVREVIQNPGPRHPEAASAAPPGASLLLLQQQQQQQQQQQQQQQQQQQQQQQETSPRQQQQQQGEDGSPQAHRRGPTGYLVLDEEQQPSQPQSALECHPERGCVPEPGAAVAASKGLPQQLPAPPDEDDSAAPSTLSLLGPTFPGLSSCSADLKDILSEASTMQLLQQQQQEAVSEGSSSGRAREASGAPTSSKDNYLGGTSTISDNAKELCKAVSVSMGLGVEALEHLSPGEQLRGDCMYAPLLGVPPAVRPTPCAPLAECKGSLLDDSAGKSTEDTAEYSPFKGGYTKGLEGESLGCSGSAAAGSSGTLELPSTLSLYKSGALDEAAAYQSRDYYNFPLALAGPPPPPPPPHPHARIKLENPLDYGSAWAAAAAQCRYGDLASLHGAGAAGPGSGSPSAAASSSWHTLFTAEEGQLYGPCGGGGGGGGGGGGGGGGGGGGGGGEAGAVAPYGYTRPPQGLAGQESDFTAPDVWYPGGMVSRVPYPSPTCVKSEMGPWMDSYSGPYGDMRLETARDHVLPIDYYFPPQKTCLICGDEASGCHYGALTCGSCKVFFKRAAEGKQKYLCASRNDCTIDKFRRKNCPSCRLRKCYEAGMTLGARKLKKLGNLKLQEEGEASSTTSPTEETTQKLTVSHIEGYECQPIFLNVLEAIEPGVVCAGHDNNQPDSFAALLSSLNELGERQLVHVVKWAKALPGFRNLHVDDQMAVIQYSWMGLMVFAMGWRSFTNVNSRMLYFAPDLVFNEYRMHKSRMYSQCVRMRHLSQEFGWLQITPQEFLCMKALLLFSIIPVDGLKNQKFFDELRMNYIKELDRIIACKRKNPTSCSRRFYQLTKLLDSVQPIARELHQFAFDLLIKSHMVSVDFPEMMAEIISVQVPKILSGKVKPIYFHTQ
Nature of the series: AR-binding inhibition test (LNCaP type). As to conditions: read-out: Inhibition rate (%) at 100 nM LNCaP type.

The target of series [2] is T2, wild type androgen receptor (AR) (Homo sapiens, UniProt P10275).
T2 sequence (P10275 1-920): T1 sequence (P10275 1-920 T878A) with A878T
The series is described as follows: AR-binding inhibition test (wild type). As to conditions: read-out: Inhibition rate (%) at 100 nM Wild type.

In series [3] the test system is Human prostate cancer cell strain LNCaP-FGC. The series is described as follows: cells. Format: cell-based. The settings on record: 72 h, read-out: Promotion rate (%) on PSA production at 100 nM.

Substitutions are numbered along the chain they refer to. Where a name gives a salt, the structure may show the parent alone.

The inhibition is the change of the read-out against control, counted positive when it falls. On to `N#Cc1ccc(N2CCCC2)c2ccccc12` [Compound 1, 4-(1-pyrrolidinyl)-1-naphthonitrile], for which the inhibition at 0.1 µM in series [1] stood at 78%; in series [2], 88%.
As a reminder, the melting point is the temperature of the solid-liquid transition. Regarding `C[C@H]1[C@@H](C#N)CCN1c1ccc(C#N)c2ccccc12`, the melting point lay within 143 to 145 °C.
`N#Cc1c(Br)cc(N2CCCCC2)c2ccccc12` registered a melting point of 179 to 180 °C.
Consider `N#Cc1ccc(N2CCC(F)C2)c2ccccc12` (centres unmarked) [Compound 99, 4-(3-fluoro-1-pyrrolidinyl)-1-naphthonitrile], for which the inhibition at 0.1 µM amounted to 92% in series [1] and 98% in series [2]. Besides, the activation at 0.1 µM in series [3] is 83%.
`CC(C)[C@H]1CCCN1c1ccc(C#N)c2ccccc12` [Compound 144, 4-[(2R)-2-isopropyl-1-pyrrolidinyl]-1-naphthonitrile]: the inhibition at 0.1 µM in series [1] was 102%; in series [2], 103%. In addition, the activation at 0.1 µM in series [3] was found to be 87%.
As to `C[C@H]1[C@H](O)CCN1c1ccc(C#N)c2ccccc12` [Compound 113, 4-[(2S,3R)-3-hydroxy-2-methyl-1-pyrrolidinyl]-1-naphthonitrile], the inhibition at 0.1 µM in series [1] was 98%; in series [2], 97%. Besides, in series [3], the activation at 0.1 µM was determined as 88%.
As to `CC1CCCN1c1ccc(C#N)c2ccccc12` (centres unmarked) [Compound 47, 4-(2-methylpyrrolidin-1-yl)-1-naphthonitrile hydrochloride], the inhibition at 0.1 µM in series [1] and in series [2] was 116% in each case. The activation at 0.1 µM in series [3] was 88%.
Take `COC[C@H]1CCCN1c1ccc(C#N)c2ccccc12` (as salt: hydrochloride) [Compound 45, 4-[(2R)-2-(methoxymethyl)pyrrolidin-1-yl]-1-naphthonitrile hydrochloride]: the melting point lay in the range of 88 to 89 °C.
For `N#Cc1ccc(N2CCCC(CO)C2)c2ccccc12` (centres unmarked) [Compound 19, 4-[3-(hydroxymethyl)-1-piperidinyl]-1-naphthonitrile], the inhibition at 0.1 µM came to 91% in series [1] and 75% in series [2]. Further, the activation at 0.1 µM in series [3] was determined as 70%.
In the case of `N#Cc1ccc(N2CCC(CCO)C2)c2ccccc12` (centres unmarked) [Compound 141, 4-[3-(2-hydroxyethyl)-1-pyrrolidinyl]-1-naphthonitrile], the inhibition at 0.1 µM in series [1] was 101%; in series [2], 96%. Also, the activation at 0.1 µM in series [3] came out at 87%.
As to `C=C[C@@H]1CCCN1c1ccc(C#N)c2ccccc12` [Compound 82, 4-[(2S)-2-vinyl-1-pyrrolidinyl]-1-naphthonitrile], the inhibition at 0.1 µM was 94% in series [1] and 85% in series [2].
Turning to `CC[C@H]1CCCN1c1ccc(C#N)c2ccccc12` [Compound 83, 4-[(2S)-2-ethyl-1-pyrrolidinyl]-1-naphthonitrile], the inhibition at 0.1 µM in series [1] is 102%; in series [2], 95%. The activation at 0.1 µM in series [3] is 95%.
For `N#Cc1ccc(N2CCCCC2)c2ccccc12` [Compound 3, 4-(1-piperidinyl)-1-naphthonitrile], the inhibition at 0.1 µM in series [1] and in series [2] was 97% in each case. Moreover, the activation at 0.1 µM in series [3] is 90%.
With `C[C@H]1CCCN1c1ccc(C#N)c2ccccc12` [Compound 85, 4-[(2S)-2-methyl-1-pyrrolidinyl]-1-naphthonitrile], the inhibition at 0.1 µM worked out at 99% in series [1] and 95% in series [2]. For the same compound, the activation at 0.1 µM in series [3] was 92%.
Regarding `CO[C@@H]1C[C@H](C)N(c2ccc(C#N)c3ccccc23)C1`, the melting point lay in the range of 88 to 89 °C.
On to `CC1(CO)CCCN(c2ccc(C#N)c3ccccc23)C1` (centres unmarked) [Compound 56, 4-[3-(hydroxymethyl)-3-methyl-1-piperidinyl]-1-naphthonitrile], for which the inhibition at 0.1 µM in series [1] turned out to be 91%; in series [2], 80%. In addition, in series [3], the activation at 0.1 µM came to 96%.
For the compound `COC[C@H]1CCCN1c1ccc(C#N)c2ccccc12` [Compound 45, 4-[(2R)-2-(methoxymethyl)pyrrolidin-1-yl]-1-naphthonitrile hydrochloride], the inhibition at 0.1 µM in series [1] came out at 110%; in series [2] it was 105%.
Consider `C[C@H]1[C@@H](C(N)=O)CCN1c1ccc(C#N)c2ccccc12`, for which the melting point was 204 to 206 °C.
Turning to `N#Cc1ccc(N2CCCCCC2)c2ccccc12` [Compound 10, 4-(1-azepaneyl)-1-naphthonitrile], the inhibition at 0.1 µM in series [1] was 144%; in series [2], 112%. Moreover, the activation at 0.1 µM in series [3] is 75%.
For the compound `C[C@H]1[C@@H](O)CCN1c1ccc(C#N)c2ccccc12` [Compound 116, 4-[(2S,3S)-3-hydroxy-2-methyl-1-pyrrolidinyl]-1-naphthonitrile], the values for the inhibition at 0.1 µM in series [1] and in series [2] were 94% and 99%, respectively. Further, the activation at 0.1 µM in series [3] turned out to be 84%.
For `CC1CCCN1c1ccc(C#N)c2sccc12` (centres unmarked) [Compound 76, 4-(2-methyl-1-pyrrolidinyl)-1-benzothiophene-7-carbonitrile], the results for the inhibition at 0.1 µM in series [1] and in series [2] were 97% and 102%, respectively. The activation at 0.1 µM in series [3] was 85%.
In the case of `CN1C(=O)CCN1c1ccc(C#N)c2ccccc12`, the melting point was in the range of 192 to 193 °C.
Take `N#Cc1ccc(N2CCC(CO)C2)c2ccccc12` (centres unmarked) [Compound 50, 4-[3-(hydroxymethyl)pyrrolidin-1-yl]-1-naphthonitrile hydrochloride]: the inhibition at 0.1 µM was 102% in series [1] and 91% in series [2]. For the same compound, the activation at 0.1 µM in series [3] came out at 88%.
On the same counts, the results for `CO[C@@H]1CCN(c2ccc(C#N)c3ccccc23)[C@H]1C` [Compound 139, 4-[(2S,3R)-3-methoxy-2-methyl-1-pyrrolidinyl]-1-naphthonitrile] are 99%, 95% and 73%.
On to `C=C[C@H]1CCCN1c1ccc(C#N)c2ccccc12` [Compound 81, 4-[(2R)-2-vinyl-1-pyrrolidinyl]-1-naphthonitrile], for which the inhibition at 0.1 µM in series [1] stood at 100%; in series [2], 104%. The activation at 0.1 µM in series [3] was 98%.
As to `CC[C@@H]1CCCN1c1ccc(C#N)c2ccccc12` [Compound 84, 4-[(2R)-2-ethyl-1-pyrrolidinyl]-1-naphthonitrile], the inhibition at 0.1 µM stood at 93% in series [1] and 88% in series [2].
As to `C[C@H]1[C@@H](O)CCN1c1ccc(C#N)c2sccc12` [Compound 118, 4-[(2S,3S)-3-hydroxy-2-methyl-1-pyrrolidinyl]-1-benzothiophene-7-carbonitrile], the inhibition at 0.1 µM in series [1] stood at 95%; in series [2], 96%. The activation at 0.1 µM in series [3] was found to be 88%.
In the case of `C[C@H]1[C@@H](CO)CCN1c1ccc(C#N)c2ccccc12` [Compound 107, 4-[(2S,3S)-3-(hydroxymethyl)-2-methyl-1-pyrrolidinyl]-1-naphthonitrile], the inhibition at 0.1 µM in series [1] was 93%; in series [2], 95%. The activation at 0.1 µM in series [3] came out at 95%.
